The record followed here is US8183263B2 (priority 2007, dated 2012).

This experiment relates to HCV replicon. As to the kind of experiment: HCV replicon replication assay (NPT level by captured ELISA). Format: cell-based. Conditions: Hepatitis C virus, read-out: Activity (inhibition of HCV replicon replication). The procedure, abridged:
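Huh-7 cells carrying HCV subgenomic replicon (NS3–NS5B, neo reporter) treated 3 days at 37 °C with 6 concentrations from 10 to 0.03 micromolar in G418-free medium, equal DMSO across wells. Replication measured on day four as NPTII level by in-cell captured ELISA on fixed cells; interferon alpha as positive control.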

Where [1] appears, read: 72 h, Huh-7 HCV replicon-containing cells, three days incubation.

Where two headings read alike, the source gives them in different places. Where only a bound is given, the exact number is not on record here.

For `Cc1ccc(Nc2nc(-c3cccnc3)c(F)s2)cc1OCC1CCCCC1` [Cmp 59, N-(3-(cyclohexylmethoxy)-4-methylphenyl)-5-fluoro-4-(pyridin-3-yl)thiazol-2-amine], under setting [1], the EC50 was less than 1000 nM.
Turning to `CC(=O)c1cc(Nc2nc(-c3cccnc3)cs2)ccc1Oc1ccccc1` [Cmp 85, 1-(2-phenoxy-5-(4-(pyridin-3-yl)thiazol-2-ylamino)phenyl)ethanone], under setting [1], the EC50 is less than 1000 nM.
With `CCCCCCCCc1ccc(Nc2nc(-c3ccc(OP(=O)(OC)OC)nc3)cs2)cc1C(F)(F)F` [Cmp 134, dimethyl 5-(2-(4-octyl-3-(trifluoromethyl)phenylamino)thiazol-4-yl)pyridin-2-yl phosphate], the EC50 (Huh-7, 72 h) is less than 1000 nM.
Take `CCCCCOc1cc(Nc2nc(-c3cnc(OC)nc3)cs2)ccc1C(F)(F)F` [Cmp 72, 4-(2-methoxypyrimidin-5-yl)-N-(3-(pentyloxy)-4-(trifluoromethyl)phenyl)thiazol-2-amine]: the EC50 under setting [1] is less than 1000 nM.
Still for that read-out and setting: the value for `Cc1cccc(OCCCc2ccc(Nc3nc(-c4cccnc4)c(F)s3)cc2C(F)(F)F)c1` [Cmp 92, 5-fluoro-4-(pyridin-3-yl)-N-(4-(3-(m-tolyloxy)propyl)-3-(trifluoromethyl)phenyl)thiazol-2-amine] was less than 1000 nM.
With `CCCCCOc1cc(Nc2nc(-c3cccnc3)cs2)ccc1C(F)(F)F` [Cmp 69, N-(3-(pentyloxy)-4-(trifluoromethyl)phenyl)-4-(pyridin-3-yl)thiazol-2-amine], the EC50 under setting [1] is less than 1000 nM.
Same read-out and setting: the value for `CCCCCCCCOc1cc(Nc2nc(-c3cccnc3)c(F)s2)ccc1C` [Cmp 28, 5-fluoro-N-(4-methyl-3-(octyloxy)phenyl)-4-(pyridin-3-yl)thiazol-2-amine] was less than 1000 nM; that for `CCCCCCCCOc1ccc(Nc2nc(-c3cccnc3)cs2)cc1C(=O)OC` [Cmp 154, methyl 2-(octyloxy)-5-(4-(pyridin-3-yl)thiazol-2-ylamino)benzoate] was less than 1000 nM; that for `Fc1sc(Nc2ccc(CCCCOc3ccccc3)c(C(F)(F)F)c2)nc1-c1cccnc1` [Cmp 136, 5-fluoro-N-(4-(4-phenoxybutyl)-3-(trifluoromethyl)phenyl)-4-(pyridin-3-yl)thiazo1-2-amine] was less than 1000 nM.
With `CCCCCCCCOc1ccc(Nc2ncc(Oc3cccnc3)s2)cc1C(F)(F)F` [Cmp 144, N-(4-(octyloxy)-3-(trifluoromethyl)phenyl)-5-(pyridin-3-yloxy)thiazol-2-amine], under setting [1], the EC50 was less than 1000 nM.
Turning to `CCCCCCCCc1ccc(Nc2nc(-c3ccc[n+](O)c3)c(F)s2)cc1` [Cmp 39, 5-fluoro-N-(4-octylphenyl)-4-(pyridine-1-oxide-3-yl)thiazol-2-amine], the EC50 under setting [1] was less than 1000 nM.
Same read-out and setting: the value for `O=c1cc(-c2ccccc2)oc2ccc(Nc3nc(-c4cccnc4)cs3)cc12` [Cmp 148, 2-phenyl-6-(4-(pyridin-3-yl)thiazol-2-ylamino)-4H-chromen-4-one] was more than 10000 nM; that for `CCCCCCCCc1ccc(Nc2nc(-c3cncc(C#N)c3)c(F)s2)cc1C(F)(F)F` [Cmp 182, 5-(5-fluoro-2-(4-octyl-3-(trifluoromethyl)phenylamino)thiazol-4-yl)nicotinonitrile] was less than 1000 nM; that for `COc1ncc(-c2csc(Nc3ccc(C)c(OCCOc4ccccc4)c3)n2)cn1` [Cmp 40, 4-(2-methoxypyrimidin-5-yl)-N-(4-methyl-3-(2-phenoxyethoxy)phenyl)thiazol-2-amine] was less than 1000 nM.
Take `CCCCCCCCc1ccc(N(C)c2nc(-c3cccnc3)c(F)s2)cc1C(F)(F)F` [Cmp 160, 5-fluoro-N-methyl-N-(4-octyl-3-(trifluoromethyl)phenyl)-4-(pyridin-3-yl)thiazol-2-amine]: the EC50 under setting [1] fell in the range of 1000 to 10000 nM.
Take `Fc1sc(Nc2ccc(CCCCCCCCCl)c(C(F)(F)F)c2)nc1-c1cccnc1` [Cmp 231, N-(4-(8-chlorooctyl)-3-(trifluoromethyl)phenyl)-5-fluoro-4-(pyridin-3-yl)thiazol-2-amine]: under setting [1], the EC50 was less than 1000 nM.
The same measure, in the same setting: the figure for `CCCCCCCCOc1ccc(Nc2nc(-c3cc(F)sc3C(N)=O)cs2)cc1C(F)(F)F` [Cmp 184, 5-fluoro-3-(2-(4-(octyloxy)-3-(trifluoromethyl)phenylamino)thiazol-4-yl)thiophene-2-carboxamide] is less than 1000 nM; for `CCCCCCCCOc1cc(Nc2nc(-c3cnc(OC)nc3)c(F)s2)ccc1C(F)(F)F` [Cmp 88, 5-fluoro-4-(2-methoxypyrimidin-5-yl)-N-(3-(octyloxy)-4-(trifluoromethyl)phenyl)thiazol-2-amine] it is less than 1000 nM; for `CCCCCCCCc1ccc(Nc2nc(-c3cnccn3)cs2)cc1C(F)(F)F` [Cmp 161, N-(4-octyl-3-(trifluoromethyl)phenyl)-4-(pyrazin-2-yl)thiazol-2-amine] it is less than 1000 nM.
Regarding `FC(F)(F)c1cc(Nc2nc(-c3cccnc3)cs2)ccc1OC1Cc2ccccc2C1` [Cmp 171, N-(4-(2,3-dihydro-1H-inden-2-yloxy)-3-(trifluoromethyl)phenyl)-4-(pyridin-3-yl)thiazol-2-amine], the EC50 under setting [1] is less than 1000 nM.
The same measure, in the same setting: the figure for `CCCCCCCCOc1ccc(Nc2ncc(-c3cccnc3)s2)cc1C(F)(F)F` [Cmp 164, N-(4-(octyloxy)-3-(trifluoromethyl)phenyl)-5-(pyridin-3-yl)thiazol-2-amine] is less than 1000 nM; for `COc1ncc(-c2csc(Nc3ccc(Oc4ccc(Cl)cc4)c(C(F)(F)F)c3)n2)cn1` [Cmp 54, N-(4-(4-chlorophenoxy)-3-(trifluoromethyl)phenyl)-4-(2-methoxypyrimidin-5-yl)thiazol-2-amine] it is less than 1000 nM; for `CCc1ccc(Oc2ccc(Nc3nc(-c4cccnc4)cs3)cc2C(C)=O)cc1` it is less than 1000 nM.
In the case of `FC(F)(F)c1cc(Nc2nc(-c3cccnc3)cs2)ccc1CCCCOc1ccccc1` [Cmp 132], under setting [1], the EC50 is less than 1000 nM.
On the same count and under the same terms, the figure for `CCCCCCCCOc1cc(Nc2nc(-c3cccnc3)cs2)ccc1C(F)(F)F` [Cmp 68, N-(3-(octyloxy)-4-(trifluoromethyl)phenyl)-4-(pyridin-3-yl)thiazol-2-amine] is less than 1000 nM; for `CCCCCCCCc1oc2ccc(Nc3nc(-c4cccnc4)c(F)s3)cc2c1Cl` [Cmp 189, N-(3-chloro-2-octylbenzofuran-5-yl)-5-fluoro-4-(pyridin-3-yl)thiazol-2-amine] it is less than 1000 nM.
Same read-out and setting: the value for `CCCCCc1nc2cc(Nc3nc(-c4cccnc4)cs3)ccc2o1` [Cmp 64] was less than 1000 nM.
The same measure, in the same setting: the figure for `CCCCCCCCOc1cc(Nc2nc(-c3ccc(F)cc3)c(F)s2)ccc1C` [Cmp 62, 5-fluoro-4-(4-fluorophenyl)-N-(4-methyl-3-(octyloxy)phenyl)thiazol-2-amine] is less than 1000 nM; for `CCCCCCCCOc1c(F)cc(Nc2nc(-c3cccnc3)c(F)s2)cc1F` [Cmp 119, N-(3,5-difluoro-4-(octyloxy)phenyl)-5-fluoro-4-(pyridin-3-yl)thiazol-2-amine] it is less than 1000 nM.
In the case of `CCCCCCCCc1ccc(Nc2nc(-c3ccc(F)nc3)cs2)cc1C(F)(F)F` [Cmp 168, 4-(6-fluoropyridin-3-yl)-N-(4-octyl-3-(trifluoromethyl)phenyl)thiazol-2-amine], under setting [1], the EC50 was less than 1000 nM.
Consider `CCCCCCCCOc1cc(Nc2nc(-c3cnc(OC)nc3)cs2)ccc1C(F)(F)F` [Cmp 71, 4-(2-methoxypyrimidin-5-yl)-N-(3-(octyloxy)-4-(trifluoromethyl)phenyl)thiazol-2-amine], for which the EC50 under setting [1] was less than 1000 nM.
Same read-out and setting: the value for `COc1ncc(-c2nc(Nc3ccc(Oc4ccccc4)c(C(F)(F)F)c3)sc2F)cn1` [Cmp 95, 5-fluoro-4-(2-methoxypyrimidin-5-yl)-N-(4-phenoxy-3-(trifluoromethyl)phenyl)thiazol-2-amine] was 1000 to 10000 nM; that for `CCCCCCCCOc1ccc(Nc2nc(-c3cccnc3)cs2)cc1S(C)(=O)=O` [Cmp 151, N-(3-(methylsulfonyl)-4-(octyloxy)phenyl)-4-(pyridin-3-yl)thiazol-2-amine] was less than 1000 nM.
For the molecule `CCCCCCCCOc1ccc(Nc2nc(-c3cccnc3)c(F)s2)cc1` [Cmp 141, 5-fluoro-N-(4-(octyloxy)phenyl)-4-(pyridin-3-yl)thiazol-2-amine], under setting [1], the EC50 is less than 1000 nM.
On the same count and under the same terms, the value for `Fc1sc(Nc2ccc(OCCC#CC3CCCC3)c(C(F)(F)F)c2)nc1-c1cccnc1` [Cmp 191, N-(4-(4-cyclopentylbut-3-ynyloxy)-3-(trifluoromethyl)phenyl)-5-fluoro-4-(pyridin-3-yl)thiazol-2-amine] was less than 1000 nM; that for `CCCC/C=C\CCOc1ccc(Nc2nc(-c3cccnc3)c(F)s2)cc1C(F)(F)F` [Cmp 172, (Z)-5-fluoro-N-(4-(oct-3-enyloxy)-3-(trifluoromethyl)phenyl)-4-(pyridin-3-yl)thiazol-2-amine] was less than 1000 nM.
`CCCCCCCCOc1ccc(Nc2ncc(Sc3ccncc3)s2)cc1C(F)(F)F` [Cmp 146, N-(4-(octyloxy)-3-(trifluoromethyl)phenyl)-5-(pyridin-4-ylthio)thiazol-2-amine]: under setting [1], the EC50 is 1000 to 10000 nM.
Turning to `CCCCCCCCOc1cc(Nc2nc(-c3cccnc3)cs2)ccc1C` [Cmp 25, N-(4-methyl-3-(octyloxy)phenyl)-4-(pyridin-3-yl)thiazol-2-amine], the EC50 under setting [1] was less than 1000 nM.
As for `CCCCCOc1cc(Nc2nc(-c3ccc(F)cc3)cs2)ccc1C(F)(F)F` [Cmp 76, 4-(4-fluorophenyl)-N-(3-(pentyloxy)-4-(trifluoromethyl)phenyl)thiazol-2-amine], the EC50 under setting [1] is less than 1000 nM.
Regarding `Fc1sc(Nc2ccc(CCCOc3ccc(Cl)cc3)c(C(F)(F)F)c2)nc1-c1cccnc1` [Cmp 104, N-(4-(3-(4-chlorophenoxy)propyl)-3-(trifluoromethyl)phenyl)-5-fluoro-4-(pyridin-3-yl)thiazol-2-amine], the EC50 under setting [1] was less than 1000 nM.
Regarding `COc1ncc(-c2csc(Nc3ccc(CCCCCc4ccc(C)cc4)c(C(F)(F)F)c3)n2)cn1` [Cmp 74, 4-(2-methoxypyrimidin-5-yl)-N-(4-(5-p-tolylpentyl)-3-(trifluoromethyl)phenyl)thiazol-2-amine], under setting [1], the EC50 is less than 1000 nM.
